In US8030453B2, “Methods of making an antibody that binds a chemerin polypeptide” (Euroscreen S.A., priority 2001, dated 2011):
Where two headings read alike, the source gives them in different places. Peptide text beside a SMILES is read from it.

Assays:
ChemerinR = target: T1, ChemerinR (Homo sapiens, UniProt Q99788); experiment: Calcium flux - Aequoscreen assay; type: cell-based
T1 construct: This fragment was subcloned into the pcDNA3 (Invitrogen) vector; expressed in transfected cells; CHO-K1 elsewhere)
T1 sequence (Q99788 3-373): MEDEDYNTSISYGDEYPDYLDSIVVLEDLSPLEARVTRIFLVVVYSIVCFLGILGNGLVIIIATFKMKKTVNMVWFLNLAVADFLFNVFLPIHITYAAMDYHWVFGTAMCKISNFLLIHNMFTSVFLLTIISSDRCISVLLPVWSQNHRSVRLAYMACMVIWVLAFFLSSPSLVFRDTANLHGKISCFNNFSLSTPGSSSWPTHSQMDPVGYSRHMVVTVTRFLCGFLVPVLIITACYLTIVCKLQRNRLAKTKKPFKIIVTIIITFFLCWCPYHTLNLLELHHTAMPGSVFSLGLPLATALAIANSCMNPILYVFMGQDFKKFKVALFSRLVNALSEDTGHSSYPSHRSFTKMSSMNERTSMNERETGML
Experimental: ChemerinR expressing clones were transfected to coexpress mithochondrial apoaequorin and Gα16. Cells in mid-log phase, grown in media without antibiotics 18 hours prior to the test, were detached by gentle flushing with PBS-EDTA (5 mM EDTA), recovered by centrifugation and resuspended in “BSA medium” (DMEM/HAM's F12 with HEPES, without phenol red+0.1% BSA). Cells were then counted, centrifuged and resuspended in a 15 ml Falcon tube at a concentration of 1×10^6 cells/ml.
The Falcon tube, wrapped in aluminium foil, was then placed on a vertical rotating wheel and incubated at room temperature (temperature should be maintained below 22° C.) overnight in order to reconstitute active aequorin.
Cells were then diluted 1/10 in “BSA-medium” and incubated as described above for 60 min. Reference ligands were diluted in “BSA-medium” and distributed in a 96-well plate (50 μl/well). For each measurement, 50 μl of cells (i.e. 5 000 cells) were injected into each well of the plate containing the ligands, and the emitted light is recorded (FDSS, Hamamatsu) during 20 seconds following cells injection. Results were expressed as Relative Light Units (RLU).
The intensity of the emitted light was integrated, yielding for each well one value representative of the emitted light.

[1] = target: T2, human ChemerinR (ChemR23) expressed in CHO-K1 cells (Homo sapiens, UniProt Q99788); experiment: aequorin-based intracellular Ca2+ release assay; type: cell-based
T2 construct: This fragment was subcloned into the pcDNA3 (Invitrogen) vector; expressed in transfected cells; host or cells: CHO-K1 (co-expressing mitochondrial apoaequorin and Galpha16)
T2 sequence (Q99788 3-373): T1 sequence (Q99788 3-373)
Experimental: Briefly, ChemerinR-expressing clones are transfected to coexpress mitochondrial apoaequorin and Gα16. Cells are incubated with 5 μM Coelenterazine H (Molecular Probes) for 4 hours at room temperature, washed in DMEM-F12 culture medium and resuspended at a concentration of 0.5×10^6 cells/ml. Cells are then mixed with test agonist peptides and light emission by the aequorin is recorded with a luminometer for 30 sec. Results are expressed as Relative Light Units (RLU). Controls include assays using membranes isolated from cells not expressing ChemerinR (mock-transfected), in order to exclude possible non-specific effects of the candidate compound.
ChemerinR-expres sing clones have been obtained by transfection of CHO-K1 cells to coexpressing mitochondrial apoaequorin and Gα16, limiting dilution and selection by northern blotting. Positive clones were used for screening with human ovarian cancer ascites extracts prepared as described above. […] Briefly, cells were collected from plates in PBS containing 5 mM EDTA, pelleted and resuspended at 5×10^6 cells/ml in DMEM-F12 medium. Cells were incubated with 5 μM Coelenterazine H (Molecular Probes) for 4 hours at room temperature. Cells were then washed in DMEM-F12 medium and resuspended at a concentration of 0.5×10^6 cells/ml. Cells were then mixed with test agonist peptides or plates containing tissue extracts and the light emission was recorded for 30 sec using a Microlumat luminometer (Perkin Elmer). Results are expressed as Relative Light Units (RLU).

[2] = target: T3, ChemerinR expressing CHO-K1 cells (Homo sapiens, UniProt Q99788); experiment: competition binding assay with 125I-[…] tracer; details: mean±s.e.m for 3 independent experiments
T3 construct: This fragment was subcloned into the pcDNA3 (Invitrogen) vector; expressed in transfected cells; host or cells: CHO-K1
T3 sequence (Q99788 3-373): T1 sequence (Q99788 3-373)
Experimental: ChemerinR expressing CHO-K1 cells were collected from plates with PBS supplemented with 5 mM EDTA, gently pelleted for 2 min at 1000×g, and resuspended in binding buffer (50 mM HEPES, pH 7.4, 1 mM CaCl2, 5 mM MgCl2, 0.5% BSA). […] Total binding was measured in the absence of competitor, and nonspecific binding was measured in the presence of a 100-fold excess of unlabeled ligand. Samples were incubated for 90 min at 27° C. and then bound tracer was separated by filtration through GF/B filters presoaked in 0.5% BSA. Filters were counted in a […]-scintillation counter. Binding parameters were determined with the PRISM software (Graphpad Software) using nonlinear regression applied to a one-site competition model.

wild-type CHO-K1 cells = experiment: signalling assays on wild-type CHO-K1 cells; type: cell-based, hamster
[3] = tested on: C5a and C3a receptors, CRTH2, GPR1, other characterized and orphan receptors, most chemokine receptors; experiment: reactivity of related and other receptors to Chemerin; type: cell-based; details: purified human Chemerin
[4] = tested on: human monocyte-derived dendritic cells and macrophages; experiment: chemotaxis (48-well microchemotaxis chamber) of primary cells; type: cell-based
Experimental: (§1) Monocyte-derived DCs were generated by GM-CSF (50 ng/ml) and IL-13 (20 ng/ml) stimulation as previously described (17). Maturation of DCs was achieved following stimulation with 100 ng/ml LPS. Macrophages were obtained by incubating monocytes in Petriperm dishes (Haereus) for 6 days in RPMI supplemented with 10% FCS and 10 ng/ml MCSF. Cell migration was evaluated using a 48-well microchemotaxis chamber technique as described (18). For Ca2+ mobilization assays, monocyte-derived DCs or macrophages (10^7 cells/ml in HBSS without phenol red but containing 0.1% BSA) were loaded with 5 μM FURA-2 (Molecular Probes) for 30 min at 37° C. in the dark. The loaded cells were washed twice, resuspended at 10^6 cells/ml, kept for 30 min at 4° C. in the dark with or without the blocking 4C7 monoclonal antibody (10 μg/ml), and transferred into the quartz cuvette of a luminescence spectrometer LS50B (PerkinElmer).

[5] = tested on: human chemerinR in CHO-K1 cells; experiment: intracellular cascade assays (calcium release, cAMP accumulation, p42/p44 MAP kinase phosphorylation) in CHO/chemerinR cells; type: cell-based
[6] = tested on: monocyte-derived immature dendritic cells and macrophages; experiment: Ca2+ mobilization (FURA-2) in primary cells; type: cell-based, human; details: similar for macrophages, Chemerin 30 nM
Experimental: as §1

[7] = 100 nM; culture medium or conditioned media of CHO-K1, Cos-7 or HEK293 cells
Experimental: In order to investigate whether proteolytic activation of prochemerin is performed intracellularly in the secretory pathway, or is an extracellular process, potentially regulated by the activation of extracellular proteases, we tested the activation of human purified prochemerin in the medium of cultured cells and conditioned media.

B16F0 melanoma cell line = experiment: in vitro proliferation of transfected B16F0 cells (BrdU, cell cycle, cell counting); type: cell-based, mouse; details: expression of Chemerin in B16F0 cells
Experimental: (§2) B16-F0 melanoma cells (ATCC) were transfected with the pEFIN3-mouse chemerin plasmid using FuGene6, and selected with 800 μg/ml G418. Clones were characterized by assaying the conditioned medium on chemerinRexpres sing cells. In vitro proliferation rate was determined by BrdU incorporation as described30. For in vivo studies, cells were washed twice with PBS, and grafted (6×10^5 cells in 0.1 ml PBS) subcutaneously into the back of 10-week-old C57B16 mice (5 to 11 mice per group, Harlan, The Netherlands). Perpendicular tumor diameters (D and d) were measured every 2 days, and the volume was estimated as V=π(d/2)(D/2)(d/2). Statistical analysis was performed by using the unpaired non parametric Mann-Whitney test. For microscopic analysis, tumors were embedded in OCT, snap-frozen in −80° C. isopentane and cut at 12 μm. Sections were stained with hematoxylin-eosin (HE) for routine analysis. All animal procedures were approved by the ethical committee of the Medical School of the Universite Libre de Bruxelles.

B16-F0 melanoma cells = experiment: B16-F0 melanoma model, subcutaneous graft in C57Bl6 mice; type: in vivo, mouse
Experimental: as §2

Molecule: CC(C)C[C@H](N)C(=O)N[C@@H](Cc1ccccc1)C(=O)N1CCC[C@H]1C(=O)NCC(=O)N[C@@H](CCC(N)=O)C(=O)N[C@@H](Cc1ccccc1)C(=O)N[C@@H](C)C(=O)N[C@@H](Cc1ccccc1)C(=O)N[C@@H](CO)C(=O)O (H-LFPGQFAFS-OH; N-terminus and C-terminus assumed)
- EC50 (ChemerinR): 66.3 nM

Molecule: C[C@H](NC(=O)[C@H](Cc1ccccc1)NC(=O)[C@H](CCC(N)=O)NC(=O)CNC(=O)[C@@H]1CCCN1C(=O)[C@H](Cc1ccccc1)NC(=O)[C@@H](N)Cc1ccc(O)cc1)C(=O)N[C@@H](Cc1ccccc1)C(=O)N[C@@H](CC(=O)O)C(N)=O (H-YFPGQFAFD-NH2; N-terminus assumed)
- EC50 (ChemerinR): 4.3 nM

Molecule: C[C@H](NC(=O)[C@H](Cc1ccccc1)NC(=O)[C@H](CCC(N)=O)NC(=O)CNC(=O)[C@@H]1CCCN1C(=O)[C@H](Cc1ccccc1)NC(=O)[C@H](Cc1ccccc1)NC(=O)[C@H](Cc1ccccc1)NC(=O)[C@H](CO)NC(=O)[C@H](Cc1c[nH]cn1)NC(=O)[C@@H](N)Cc1ccc(O)cc1)C(=O)N[C@@H](Cc1ccccc1)C(=O)N[C@@H](CO)C(=O)O (H-YHSFFFPGQFAFS-OH; N-terminus and C-terminus assumed)
- EC50 [1]: 28 nM
- Ki ([2]; Ki): 12.1 ± 4.97 nM
- Ki ([2]; pKi): 11.2 nM

Molecule: recombinant Chemerin: human recombinant Chemerin expressed in CHO-K1 cells, C-terminally truncated after serine 157 (137 amino acids)
- activity on wild-type CHO-K1 cells (wild-type CHO-K1 cells): No activity
- reactivity of other receptors [3]: totally unreactive
- concentration of maximal chemotactic activity ([4]; immature dendritic cells): 1 nM
- in vitro migration ([4]; macrophages and immature dendritic cells): promoted in vitro migration
- chemotaxis ([4]; mature dendritic cells): no chemotaxis
- concentrations causing intracellular calcium release, inhibition of cAMP accumulation, phosphorylation of p42 and p44 MAP kinases [5]: low nanomolar concentrations
- intracellular Ca2+ levels [6]: increased

Molecule: CC(C)C[C@H](NC(=O)[C@@H](N)Cc1ccccc1)C(=O)N1CCC[C@H]1C(=O)NCC(=O)N[C@@H](CCC(N)=O)C(=O)N[C@@H](Cc1ccccc1)C(=O)N[C@@H](C)C(=O)N[C@@H](Cc1ccccc1)C(=O)N[C@@H](CO)C(=O)O (H-FLPGQFAFS-OH; N-terminus and C-terminus assumed)
- EC50 (ChemerinR): 29.1 nM

Molecule: CC[C@H](C)[C@H](N)C(=O)N[C@@H](Cc1ccccc1)C(=O)N1CCC[C@H]1C(=O)NCC(=O)N[C@@H](CCC(N)=O)C(=O)N[C@@H](Cc1ccccc1)C(=O)N[C@@H](C)C(=O)N[C@@H](Cc1ccccc1)C(=O)N[C@@H](CO)C(=O)O (H-IFPGQFAFS-OH; N-terminus and C-terminus assumed)
- EC50 (ChemerinR): 25.8 nM

Molecule: CC(C)[C@H](NC(=O)[C@@H](N)Cc1ccc(O)cc1)C(=O)N1CCC[C@H]1C(=O)NCC(=O)N[C@@H](CCC(N)=O)C(=O)N[C@@H](Cc1ccccc1)C(=O)N[C@@H](C)C(=O)N[C@@H](Cc1ccccc1)C(=O)N[C@@H](CO)C(=O)O (H-YVPGQFAFS-OH; N-terminus and C-terminus assumed)
- EC50 (ChemerinR; read-out: EC50): 43.8 nM

Molecule: Pertussis toxin [reference compound]
- effect on Chemerin-induced migration ([4]; macrophages and dendritic cells, Pertussis toxin 3 μg/ml, 4C7 10 μg/ml): completely abolished
- effect on Chemerin signalling effects ([5]; pretreatment): inhibited

B1: prochemerin: unprocessed form of the protein retaining the six C-terminal aminoacids (143 amino acids) (protein, listed as Homo sapiens)
chain: ELTEAQRRGLQVALEEFHKHPPVQWAFQETSVESAVDTPFPAGIFVRLEFKLQQTSCRKRDWKKPECKVRPNGRKRKCLACIKLGSEDKVLGRLVHCPIETQVLREAEEHQETQCLRVQRAGEDPHSFYFPGQFAFSKALPRS
- activity on wild-type CHO-K1 cells (wild-type CHO-K1 cells): No activity
- EC50 ([1]; CHO cells expressing ChemerinR, aequorin assay, read-out: EC50 for activation of ChemerinR): 393 ± 116 nM
- EC50 ([1]; truncated Chemerin peptides, values in nM, read-out: Mean EC50): 393 ± 116 nM
- conversion into a form active on ChemerinR [7]: fully converted

B2: mouse Chemerin: mouse Chemerin expressed by B16F0 melanoma cells transfected with a bicistronic expression vector containing the mouse Chemerin cDNA (protein)
chain: EPELSETQRRSLQVALEEFHKHPPVQLAFQEIGVDRAEEVLFSAGTFVRLEFKLQQTNCPKKDWKKPECTIKPNGRRRKCLACIKMDPKGKILGRIVHCPILKQGPQDPQELQCIKIAQAGEDPHGYFLPGQFAFSRALRTK
- growth rate of the cell lines (B16F0 melanoma cell line): did not modify the growth rate
- average reduction of size of developing tumors (B16-F0 melanoma cells; 21-24 days after the graft of Chemerin-expressing cells vs control): 70%
- mice that did not develop tumors (B16-F0 melanoma cells; three series combined, up to four weeks after graft, 0/24 in control group, p<0.05): 5 out of 24
